Data set [1] deals with rgRSV224 virus. The data set can be described thus: Antiviral activity: rgRSV224 (GFP) replication in HeLa cells. The following applies: human respiratory syncytial virus, 72 h, read-out: RSV HELA pEC50 (converted).
Protocol: Black 384-well clear-bottom microtiter plates (Corning, Amsterdam, The Netherlands) were filled via acoustic drop ejection using the echo liquid handler (Labcyte, Sunnyvale, Calif.). 200 nL of compound stock solutions (100% DMSO) were transferred to the assay plates. 9 serial 4-fold dilutions of compound were made, creating per quadrant the same compound concentration. The assay was initiated by adding 10 μL of culture medium to each well (RPMI medium without phenol red, 10% FBS-heat inactivated, 0.04% gentamycin (50 mg/mL). All addition steps are done by using a multidrop dispenser (Thermo Scientific, Erembodegem, Belgium). Next, rgRSV224 virus (MOI=1) diluted in culture medium was added to the plates. rgRSV224 virus is an engineered virus that includes an additional GFP gene (Hallak L K, Spillmann D, Collins P L, Peeples M E. Glycosaminoglycan sulfation requirements for respiratory syncytial virus infection; Journal of virology (2000), 74(22), 10508-13) and was in-licensed from the NIH (Bethesda, Md., USA). Finally, 20 μL of a HeLa cell suspension (3,000 cells/well) were plated. Medium, virus- and mock-infected controls were included in each test. The wells contain 0.05% DMSO per volume. Cells were incubated at 37° C. in a 5% CO2 atmosphere. Three days post-virus exposure, viral replication was quantified by measuring GFP expression in the cells by an in house developed MSM laser microscope (Tibotec, Beerse, Belgium). The EC50 was defined as the 50% inhibitory concentration for GFP expression. In parallel, compounds were incubated for three days in a set of white 384-well microtiter plates (Corning) and the cytotoxicity of compounds in HeLa cells was determined by measuring the ATP content of the cells using the ATPlite kit (Perkin Elmer, Zaventem, Belgium) according to the manufacturer's instructions. The CC50 was defined as the 50% concentration for cytotoxicity.
Data set [2] is described as follows: Cytotoxicity in HeLa cells (ATPlite, CC50) used for selectivity index. The note with it: human. On the technique in general: Cellular ATP, detected with luciferase, serves as a proxy for viable cell number.
Protocol: The wells contain 0.05% DMSO per volume. Cells were incubated at 37° C. in a 5% CO2 atmosphere. […] In parallel, compounds were incubated for three days in a set of white 384-well microtiter plates (Corning) and the cytotoxicity of compounds in HeLa cells was determined by measuring the ATP content of the cells using the ATPlite kit (Perkin Elmer, Zaventem, Belgium) according to the manufacturer's instructions. The CC50 was defined as the 50% concentration for cytotoxicity.

For the compound `CS(=O)(=O)CCCn1c(CN2C(=O)C3(CN(C(=O)N[C@H]4C[C@@H](O)C4)C3)c3ccccc32)cc2cc(Cl)ccc21` [Co. No. 10, 1′-[[5-chloro-1-(3-methylsulfonylpropyl)indol-2-yl]methyl]-N-(cis-3-hydroxycyclobutyl)-2′-oxo-spiro[azetidine-3,3′-indoline]-1-carboxamide], in data set [1], the EC50 is < 0.17 nM. Besides, in data set [2], the selectivity ratio at 3 days was > 505000.
Regarding `CC(C)NC(=O)N1CC2(C1)C(=O)N(Cc1nc3cc(Cl)ccc3n1CCCC#N)c1ccccc12` [Co. No. 19, 1′-[[5-chloro-1-(3-cyanopropyl)benzimidazol-2-yl]methyl]-N-isopropyl-2′-oxo-spiro[azetidine-3,3′-indoline]-1-carboxamide], the EC50 in data set [1] was 0.0912 nM. Besides, the selectivity ratio at 3 days in data set [2] is > 1.11e+06.
As for `CS(=O)(=O)CCCn1c(CN2C(=O)C3(CN(C(=O)NCC(F)(F)F)C3)c3ccccc32)cc2cc(Cl)ccc21` [Co. No. 12, 1′-[[5-chloro-1-(3-methylsulfonylpropyl)indol-2-yl]methyl]-2′-oxo-N-(2,2,2-trifluoroethyl)spiro[azetidine-3,3′-indoline]-1-carboxamide], the EC50 in data set [1] is 0.269 nM. The selectivity ratio at 3 days in data set [2] was determined as 86900.
For `CS(=O)(=O)CCCn1c(CN2C(=O)C3(CN(C(=O)N[C@H]4C[C@H](O)C4)C3)c3ccccc32)cc2cc(Cl)ccc21` [Co. No. 11, 1′-[[5-chloro-1-(3-methylsulfonylpropyl)indol-2-yl]methyl]-N-(trans-3-hydroxycyclobutyl)-2′-oxo-spiro[azetidine-3,3′-indoline]-1-carboxamide], in that order: 0.245 nM and 300000.
Taken in the same sequence, the figures for `CC(C)NC(=O)N1CCC2(CC1)C(=O)N(Cc1cc3cc(Cl)ccc3n1CCCS(C)(=O)=O)c1cnccc12` [Co. No. 27, 1′-[[5-chloro-1-(3-methylsulfonylpropyl)indol-2-yl]methyl]-N-isopropyl-2′-oxo-spiro[piperidine-4,3′-pyrrolo[2,3-c]pyridine]-1-carboxamide] were 0.257 nM and 300000.
Taken in the same sequence, the figures for `CC(C)NC(=O)N1CC2(C1)C(=O)N(Cc1nc3nc(Cl)ccc3n1CCCCF)c1ccccc12` [Co. No. 20, 1′-[[5-chloro-1-(4-fluorobutyl)imidazo[4,5-b]pyridin-2-yl]methyl]-N-isopropyl-2′-oxo-spiro[azetidine-3,3′-indoline]-1-carboxamide] were 1.26 nM and > 80200.
Regarding `O=C(NC1CC(O)C1)N1CC2(C1)C(=O)N(Cc1nc3nc(Cl)ccc3n1CCCCF)c1ccccc12` (stereo not shown) [Co. No. 21, 1′-[[5-chloro-1-(4-fluorobutyl)imidazo[4,5-b]pyridin-2-yl]methyl]-N-(3-hydroxycyclobutyl)-2′-oxo-spiro[azetidine-3,3′-indoline]-1-carboxamide], in data set [1], the EC50 is 1.41 nM. For the same compound, the selectivity ratio at 3 days in data set [2] was > 71400.
Taken in the same sequence, the figures for `N#CCCCn1c(CN2C(=O)C3(CN(C(=O)NC4CCN(CC(F)(F)F)CC4)C3)c3ccccc32)cc2cc(Cl)ccc21` [Co. No. 4, 1′-[[5-chloro-1-(3-cyanopropyl)indol-2-yl]methyl]-2′-oxo-N-[1-(2,2,2-trifluoroethyl)-4-piperidyl]spiro[azetidine-3,3′-indoline]-1-carboxamide] were 1 nM and 100000.
For `CC(C)(CO)NC(=O)N1CC2(C1)C(=O)N(Cc1cc3cc(Cl)ccc3n1CCCS(C)(=O)=O)c1ccccc12` [Co. No. 13, 1′-[[5-chloro-1-(3-methylsulfonylpropyl)indol-2-yl]methyl]-N-(2-hydroxy-1,1-dimethyl-ethyl)-2′-oxo-spiro[azetidine-3,3′-indoline]-1-carboxamide], in that order: 1 nM and 43400.
Turning to `CS(=O)(=O)CCCn1c(CN2C(=O)C3(CN(C(=O)NCCN4CCOCC4)C3)c3ccccc32)cc2cc(Cl)ccc21` [Co. No. 16, 1′-[[5-chloro-1-(3-methylsulfonylpropyl)indol-2-yl]methyl]-N-(2-morpholinoethyl)-2′-oxo-spiro[azetidine-3,3′-indoline]-1-carboxamide], the EC50 in data set [1] is 0.339 nM. For the same compound, the selectivity ratio at 3 days in data set [2] amounted to 159000.
For `CC(CO)NC(=O)N1CC2(C1)C(=O)N(Cc1cc3cc(Cl)ccc3n1CCCS(C)(=O)=O)c1ccccc12` (stereo not shown) [Co. No. 14, 1′-[[5-chloro-1-(3-methylsulfonylpropyl)indol-2-yl]methyl]-N-(2-hydroxy-1-methyl-ethyl)-2′-oxo-spiro[azetidine-3,3′-indoline]-1-carboxamide], in that order: 0.575 nM and 98200.
For `O=C(NC1CCOCC1)N1CC2(C1)C(=O)N(Cc1nc3nc(Cl)ccc3n1CCCC(F)(F)F)c1ccccc12` [Co. No. 23, 1′-[[5-chloro-1-(4,4,4-trifluorobutyl)imidazo[4,5-b]pyridin-2-yl]methyl]-2′-oxo-N-tetrahydropyran-4-yl-spiro[azetidine-3,3′-indoline]-1-carboxamide], in that order: 1.62 nM and > 61800.
Taken in the same sequence, the figures for `N#CCCCn1c(CN2C(=O)C3(CN(C(=O)N[C@H]4C[C@@H](O)C4)C3)c3ccccc32)cc2cc(Cl)ccc21` [Co. No. 8, 1′-[[5-chloro-1-(3-cyanopropyl)indol-2-yl]methyl]-N-(cis-3-hydroxycyclobutyl)-2′-oxo-spiro[azetidine-3,3′-indoline]-1-carboxamide] were < 0.153 nM and > 232000.
For `CNC(=O)N1CCC2(CC1)C(=O)N(Cc1cc3cc(Cl)ccc3n1CCCC#N)c1cnccc12` [Co. No. 25, 1′-[[5-chloro-1-(3-cyanopropyl)indol-2-yl]methyl]-N-methyl-2′-oxo-spiro[piperidine-4,3′-pyrrolo[2,3-c]pyridine]-1-carboxamide], the EC50 in data set [1] was 0.178 nM. In addition, in data set [2], the selectivity ratio at 3 days was > 565000.
For `CC(C)(C)OC(=O)N1CCC(NC(=O)N2CC3(C2)C(=O)N(Cc2cc4cc(Cl)ccc4n2CCCC#N)c2ccccc23)CC1` [Co. No. 2, tert-butyl 4-[[1′-[[5-chloro-1-(3-cyanopropyl)indol-2-yl]methyl]-2′-oxo-spiro[azetidine-3,3′-indoline]-1-carbonyl]amino]piperidine-1-carboxylate], in that order: 2 nM and > 50000.
As to `N#CCCCn1c(CN2C(=O)C3(CN(C(=O)NC4CCOCC4)C3)c3ccccc32)cc2cc(Cl)ccc21` [Co. No. 6, 1′-[[5-chloro-1-(3-cyanopropyl)indol-2-yl]methyl]-2′-oxo-N-tetrahydropyran-4-yl-spiro[azetidine-3,3′-indoline]-1-carboxamide], the EC50 in data set [1] was 0.316 nM. Also, in data set [2], the selectivity ratio at 3 days stood at 100000.
Taken in the same sequence, the figures for `CN(C)CCN(C)C(=O)N1CC2(C1)C(=O)N(Cc1cc3cc(Cl)ccc3n1CCCS(C)(=O)=O)c1ccccc12` [Co. No. 15, 1′-[[5-chloro-1-(3-methylsulfonylpropyl)indol-2-yl]methyl]-N-[2-(dimethylamino)ethyl]-N-methyl-2′-oxo-spiro[azetidine-3,3′-indoline]-1-carboxamide] were 7.59 nM and 2570.

The record behind these values is patent US9738652B2, “Spiro urea compounds as RSV antiviral compounds” (priority 2014, dated 2017).
